Measurements reported in patent US20220330549A1, “USE OF N-BENZYLBENZAMIDE-BASED COMPOUND AS HERBICIDE” (Northwest A&F University, priority 2020, published 2022).

Tests used:
Assay type in all cases: in vivo
Piemarker [1] = assay: Herbicidal activity test for indoor pre-emergence soil treatment; set-up: key: level 1-9; higher = more weed remaining vs blank control; conditions: 150 g a.i./ha, visual inspection 21 days after treatment
Method in brief: (§1)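 Pre-emergence test following NY/T 1155.3-2006: weed seeds were sown in moistened neutral sandy loam (≤2% organic matter) and covered with 0.5–2.0 cm of soil. After 24 h, the soil was sprayed with a 10% EC diluted in water at 150 g(a.i.)/ha. Damage was scored visually on a 1–9 scale at 21 days.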

green bristlegrass [2] = assay: as above; set-up: key: level 1-9; higher = more weed remaining vs blank control; conditions: 150 g a.i./ha, visual inspection 21 days after treatment
Method in brief: as §1

Barnyard grass [3] = assay: as above; set-up: key: level 1-9; higher = more weed remaining vs blank control; conditions: 150 g a.i./ha, visual inspection 21 days after treatment
Method in brief: as §1

Amaranthus retroflexus [4] = assay: as above; set-up: key: 1-9 levels; higher = more weed remaining vs blank control; conditions: 150 g a.i./ha, visual inspection 21 days after treatment
Method in brief: as §1

Digitaria sanguinalis [5] = assay: as above; set-up: key: 1-9 levels; higher = more weed remaining vs blank control; conditions: 150 g a.i./ha, visual inspection 21 days after treatment
Method in brief: as §1

Broadleaf weed = assay: Post-emergence herbicidal activity test in a paddy field; set-up: key: level scale; higher level = more weed left vs blank control; conditions: 150 g a.i./ha (penoxsulam control 250 g(a.i.)/h)
Method in brief: (§2)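 Efficacy was visually estimated 15 and 30 days after spraying, grading weed coverage relative to an untreated neighbouring plot (level 2 = 0 to 2.5%, level 9 = 67.6 to 100%). Treatments were 150 g(a.i.)/ha from 10% emulsifiable concentrates applied at the 4-5 leaf rice stage, four repeats of 50 m^2 each.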

Gramineae = assay: as above; set-up: key: level scale; higher level = more weed left vs blank control; conditions: 150 g a.i./ha (penoxsulam control 250 g(a.i.)/h)
Method in brief: as §2

Cyperaceae = assay: as above; set-up: key: level scale; higher level = more weed left vs blank control; conditions: 150 g a.i./ha (penoxsulam control 250 g(a.i.)/h)
Method in brief: as §2

Amaranthus retroflexus [6] = assay: Field test for weed control in a corn field; conditions: 150 g a.i./ha, 30 days after treatment
Method in brief: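 Post-emergence control of Amaranthus retroflexus was assessed in corn plots using the GB/T 17980.42-2000 method. Emulsifiable concentrates (10%) in water were applied by spraying at the 2- to 5-leaf crop stage on 20 m^2 plots, four replicates each, alongside a mesotrione 25% oil dispersion reference. Herbicidal activity was scored on 1-9 levels by weed amount relative to blank control areas.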

Acalypha australis = assay: Field test for weed control in a corn field; conditions: 150 g a.i./ha, after treatment
Method in brief: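 Herbicidal activity against weeds was assessed in corn plots by the GB/T 17980.42-2000 method. Corn at the 2–5 leaf stage received water sprays of 10% emulsifiable concentrates at 150 g(a.i.)/ha, four repeats per treatment over 20 m^2. A 25% mesotrione oil dispersion was the reference. Damage symptoms and severity were rated on levels 1-9 relative to weeds in the blank control area.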

nutgrass flatsedge = assay: Field test for weed control in a corn field; conditions: 150 g a.i./ha, after treatment
Method in brief: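 Herbicidal effect on nutgrass flatsedge was measured in a field planted with corn, using the GB/T 17980.42-2000 method. Emulsifiable concentrates (10%) in water were sprayed at 150 g(a.i.)/ha during the 2-leaf to 5-leaf corn stage, on 20 m^2 plots repeated 4 times. 25% mesotrione oil dispersion was the control agent. Activity was scored from 1 to 9 by weed remaining relative to blank control plots.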

Convolvulus arvensis = assay: Field test for weed control in a corn field; conditions: 150 g a.i./ha, after treatment
Method in brief: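 Post-emergence herbicidal activity on Convolvulus arvensis was scored in a corn field on a 1-9 scale, based on symptoms and damage severity. Each level corresponds to the weed remaining as a percentage of the blank control area. Sprays of 10% emulsifiable concentrate at 150 g(a.i.)/ha went on at the corn 2–5 leaf stage, with four replicates of 20 m^2 per treatment.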

Chenopodium album = assay: Field test for weed control in a corn field; conditions: 150 g a.i./ha, after treatment
Method in brief: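 Field weed-control testing in corn, run per GB/T 17980.42-2000, scored Chenopodium album on a 1-9 level scale, where each level matches a percentage range of weed remaining relative to the blank control area. Sprays of 10% emulsifiable concentrates in water delivered 150 g(a.i.)/ha at the corn 2-leaf to 5-leaf stage on 20 m^2 plots, four replicates each. Mesotrione 25% oil dispersion served as reference.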

Portulaca oleracea = assay: Field test for weed control in a corn field; conditions: 150 g a.i./ha, after treatment
Method in brief: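 Post-emergence weed control was evaluated in a corn field by the GB/T 17980.42-2000 method. Emulsifiable concentrates (10%) in water were applied as sprays at 150 g(a.i.)/ha at the 2-5 leaf corn stage, in four replicate 20 m^2 plots. A 25% mesotrione oil dispersion served as control agent. Effects were graded 1-9 relative to weed remaining in blank control areas.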

green bristlegrass [7] = assay: Field test for weed control in a corn field; conditions: 150 g a.i./ha, after treatment
Method in brief: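 Herbicidal activity against green bristlegrass was assessed in corn field plots of 20 m^2 per GB/T 17980.42-2000. Test agents, formulated as 10% emulsifiable concentrates, were applied in water at 150 g(a.i.)/ha at the corn 2 leaves to 5 leaves stage, repeated 4 times. A 25% mesotrione oil dispersion served as the control agent, and weed damage was rated on levels 1-9.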

Barnyard grass [8] = assay: Field test for weed control in a corn field; conditions: 150 g a.i./ha, 30 days after treatment
Method in brief: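 Herbicidal activity against barnyard grass was assessed in corn field plots of 20 m^2, with four replicates per treatment. Compounds were applied as water-diluted 10% emulsifiable concentrates at 150 g(a.i.)/ha at the 2-5 leaf corn stage, with 25% mesotrione oil dispersion as the reference agent. Damage was scored on a 1-9 scale against untreated blank plots.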

Solanum nigrum = assay: Field test for weed control in a corn field; conditions: 150 g a.i./ha, 30 days after treatment
Method in brief: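 In a corn field trial based on GB/T 17980.42-2000, 10% emulsifiable concentrates diluted in water were sprayed at 150 g(a.i.)/ha at the 2 to 5 leaf stage of corn. Each treatment used 20 m^2 plots and was repeated 4 times, with 25% mesotrione oil dispersion as the reference agent. Solanum nigrum damage was scored on a 1-9 scale against blank control plots.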

goosegrass = assay: Field test for weed control in a corn field; conditions: 150 g a.i./ha, after treatment
Method in brief: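 In this field trial in corn, run per GB/T 17980.42-2000, test agents prepared as 10% emulsifiable concentrates were applied in water as sprays at 150 g(a.i.)/ha at the 2- to 5-leaf corn stage. Each treatment covered 20 m^2 and was repeated 4 times. Goosegrass control was scored 1-9 relative to weed remaining in blank control areas.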

Digitaria sanguinalis [9] = assay: Field test for weed control in a corn field; conditions: 150 g a.i./ha, after treatment
Method in brief: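 Field trial in a corn field following GB/T 17980.42-2000. Test compounds were formulated as 10% emulsifiable concentrates, diluted in water and sprayed post-emergence at 150 g(a.i.)/ha when corn had 2 to 5 leaves, with 4 replicates on 20 m^2 plots. Control of Digitaria sanguinalis was scored on a 1-9 scale based on weed damage relative to the untreated blank area.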

Amaranthus retroflexus [10] = assay: Herbicidal activity test for indoor post-emergence spraying on stems and leaves; set-up: key: grade level by weed remaining vs blank control, e.g. 5 = 10.1-15%; conditions: 150 g a.i./ha, visual inspection 21 days after treatment
Method in brief: (§3)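 Greenhouse-grown weeds, post-emergence foliar spray (NY/T 1155.4-2006 method); visual scoring at 21 d post-treatment as levels vs. untreated blank control (e.g., level 5 = 10.1–15%, level 8 = 35.1–67.5% of control weed).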

Piemarker [11] = assay: as above; set-up: key: grade level by weed remaining vs blank control, e.g. 5 = 10.1-15%; conditions: 150 g a.i./ha, visual inspection 21 days after treatment
Method in brief: as §3

Humulus scandens [12] = assay: as above; set-up: key: grade level by weed remaining vs blank control, e.g. 5 = 10.1-15%; conditions: 150 g a.i./ha, visual inspection 21 days after treatment
Method in brief: as §3

green bristlegrass [13] = assay: as above; set-up: key: grade level by weed remaining vs blank control, e.g. 5 = 10.1-15%; conditions: 150 g a.i./ha, visual inspection 21 days after treatment
Method in brief: as §3

Barnyard grass [14] = assay: as above; set-up: key: grade level by weed remaining vs blank control, e.g. 5 = 10.1-15%; conditions: 150 g a.i./ha, visual inspection 21 days after treatment
Method in brief: as §3

Digitaria sanguinalis [15] = assay: as above; set-up: key: grade level by weed remaining vs blank control, e.g. 5 = 10.1-15%; conditions: 150 g a.i./ha, visual inspection 21 days after treatment
Method in brief: as §3

Humulus scandens [16] = assay: Herbicidal activity test for indoor pre-emergence soil treatment; conditions: 150 g a.i./ha, visual inspection 21 days after treatment
Method in brief: as §1

COc1ccc(OC)c(C(=O)NCc2cccc(F)c2)c1 [Compound A22, N-(3-fluorobenzyl)-2,5-dimethoxybenzamide]
Herbicidal Activity Piemarker (Piemarker [1]): 2 (equivalent to 0 to 2.5% of the weed in the blank control area) | Herbicidal Activity Green bristlegrass (green bristlegrass [2]): 2 (equivalent to 0 to 2.5% of the weed in the blank control area) | Herbicidal Activity Barnyard grass (Barnyard grass [3]): 1 | Herbicidal Activity Amaranthus retroflexus (Amaranthus retroflexus [4]): 2 (equivalent to 0 to 2.5% of the weed in the blank control area) | Herbicidal Activity Digitaria sanguinalis (Digitaria sanguinalis [5]): 1 | Herbicidal activity 15 days after treatment Broadleaf weed (Broadleaf weed): 2 (equivalent to 0 to 2.5% of the weed in the blank control area) | Herbicidal activity 30 days after treatment Broadleaf weed (Broadleaf weed): 1 | Herbicidal activity 15 days after treatment Gramineae (Gramineae): 1 | Herbicidal activity 30 days after treatment Gramineae (Gramineae): 1 | Herbicidal activity 15 days after treatment Cyperaceae (Cyperaceae): 2 (equivalent to 0 to 2.5% of the weed in the blank control area) | Herbicidal activity 30 days after treatment Cyperaceae (Cyperaceae): 1 | Post-emergence weed control effect, Amaranthus retroflexus (Amaranthus retroflexus [6]): 1 | Post-emergence weed control effect, Acalypha australis (Acalypha australis): 2 (equivalent to 0 to 2.5% of the weed in the blank control area) | Post-emergence weed control effect, Nutgrass flatsedge (nutgrass flatsedge): 2 (equivalent to 0 to 2.5% of the weed in the blank control area) | Post-emergence weed control effect, Convolvulus arvensis (Convolvulus arvensis): 1 | Post-emergence weed control effect, Chenopodium album (Chenopodium album): 1 | Post-emergence weed control effect, Portulaca oleracea (Portulaca oleracea): 1 | Post-emergence weed control effect, Green bristlegrass (green bristlegrass [7]): 2 (equivalent to 0 to 2.5% of the weed in the blank control area) | Post-emergence weed control effect, Barnyard grass (Barnyard grass [8]): 2 (equivalent to 0 to 2.5% of the weed in the blank control area) | Post-emergence weed control effect, Solanum nigrum (Solanum nigrum): 2 (equivalent to 0 to 2.5% of the weed in the blank control area) | Post-emergence weed control effect, Goose grass (goosegrass): 2 (equivalent to 0 to 2.5% of the weed in the blank control area) | Post-emergence weed control effect, Digitaria sanguinalis (Digitaria sanguinalis [9]): 1 | Herbicidal Activity Amaranthus retroflexus (Amaranthus retroflexus [10]): 1 | Herbicidal Activity Piemarker (Piemarker [11]): 1 | Herbicidal Activity Humulus scandens (Humulus scandens [12]): 1 | Herbicidal Activity Green bristlegrass (green bristlegrass [13]): 2 (equivalent to 0 to 2.5% of the weed in the blank control area) | Herbicidal Activity Barnyard grass (Barnyard grass [14]): 1 | Herbicidal Activity Digitaria sanguinalis (Digitaria sanguinalis [15]): 1 | Herbicidal Activity Humulus scandens (Humulus scandens [16]): 4 (equivalent to 5.1 to 10% of the weed in the blank control area)

COc1ncccc1C(=O)NCc1ccc(F)cc1 [Compound A94]
Herbicidal Activity Piemarker (Piemarker [1]): 1 | Herbicidal Activity Green bristlegrass (green bristlegrass [2]): 1 | Herbicidal Activity Barnyard grass (Barnyard grass [3]): 1 | Herbicidal Activity Amaranthus retroflexus (Amaranthus retroflexus [4]): 1 | Herbicidal Activity Digitaria sanguinalis (Digitaria sanguinalis [5]): 1 | Herbicidal activity 15 days after treatment Broadleaf weed (Broadleaf weed): 1 | Herbicidal activity 30 days after treatment Broadleaf weed (Broadleaf weed): 1 | Herbicidal activity 15 days after treatment Gramineae (Gramineae): 2 (equivalent to 0 to 2.5% of the weed in the blank control area) | Herbicidal activity 30 days after treatment Gramineae (Gramineae): 2 (equivalent to 0 to 2.5% of the weed in the blank control area) | Herbicidal activity 15 days after treatment Cyperaceae (Cyperaceae): 1 | Herbicidal activity 30 days after treatment Cyperaceae (Cyperaceae): 2 (equivalent to 0 to 2.5% of the weed in the blank control area) | Post-emergence weed control effect, Amaranthus retroflexus (Amaranthus retroflexus [6]): 1 | Post-emergence weed control effect, Acalypha australis (Acalypha australis): 2 (equivalent to 0 to 2.5% of the weed in the blank control area) | Post-emergence weed control effect, Nutgrass flatsedge (nutgrass flatsedge): 3 (equivalent to 2.6 to 5% of the weed in the blank control area) | Post-emergence weed control effect, Convolvulus arvensis (Convolvulus arvensis): 2 (equivalent to 0 to 2.5% of the weed in the blank control area) | Post-emergence weed control effect, Chenopodium album (Chenopodium album): 1 | Post-emergence weed control effect, Portulaca oleracea (Portulaca oleracea): 1 | Post-emergence weed control effect, Green bristlegrass (green bristlegrass [7]): 2 (equivalent to 0 to 2.5% of the weed in the blank control area) | Post-emergence weed control effect, Barnyard grass (Barnyard grass [8]): 1 | Post-emergence weed control effect, Solanum nigrum (Solanum nigrum): 2 (equivalent to 0 to 2.5% of the weed in the blank control area) | Post-emergence weed control effect, Goose grass (goosegrass): 1 | Post-emergence weed control effect, Digitaria sanguinalis (Digitaria sanguinalis [9]): 2 (equivalent to 0 to 2.5% of the weed in the blank control area) | Herbicidal Activity Amaranthus retroflexus (Amaranthus retroflexus [10]): 1 | Herbicidal Activity Piemarker (Piemarker [11]): 1 | Herbicidal Activity Humulus scandens (Humulus scandens [12]): 1 | Herbicidal Activity Green bristlegrass (green bristlegrass [13]): 1 | Herbicidal Activity Barnyard grass (Barnyard grass [14]): 1 | Herbicidal Activity Digitaria sanguinalis (Digitaria sanguinalis [15]): 1 | Herbicidal Activity Humulus scandens (Humulus scandens [16]): 2 (equivalent to 0 to 2.5% of the weed in the blank control area)
